Assay results taken from ChEMBL document CHEMBL3046866, “Microwave-assisted synthesis and evaluation of anti-inflammatory activity of new series of N-substituted 2-butyl-5-chloro-3H-imidazole-4-carbaldehyde derivatives” (2009).

System: Rattus norvegicus
Assay: Anti-inflammatory activity in Rattus norvegicus albino (rat) assessed as inhibition of carrageenan-induced paw edema at 100 mg/kg, po administered 1 to 3 hr prior challenge
Format: functional

Compound | inhibition in vivo at 100 mg/kg [%]
CCCCc1nc(Cl)c(C=O)n1CC(=O)c1ccc(Cl)cc1 | 28
CC(C)Cc1ccc(C(C)C(=O)O)cc1 (centres undefined) [IBUPROFEN] | 49
CCCCc1nc(Cl)c(C=O)n1CC(=O)c1ccccc1 | 26
CCCCc1nc(Cl)c(C=O)n1Cc1cc2c(cc1C)OCO2 | 26
